Test system: SK-MEL-5
Assay: Growth inhibition of human SK-MEL-5 cells at 10 uM incubated for 48 hrs by sulforhodamine B assay relative to control
Assay type: functional
Details: SK-MEL-5, 48 h, read-out: GI

| Compound | inhibition of growth at 10 µM [%] |
| --- | --- |
| Clc1ccc(-c2cn3nc(-c4ccccc4)nc3s2)cc1 | 21 |

Test system: OVCAR-4
Assay: Growth inhibition of human OVCAR4 cells at 10 uM incubated for 48 hrs by sulforhodamine B assay relative to control
Assay type: functional
Details: OVCAR-4, 48 h, read-out: GI

| Compound | inhibition of growth at 10 µM [%] |
| --- | --- |
| Clc1ccc(-c2cn3nc(-c4ccccc4)nc3s2)cc1 | 60 |

Test system: T47D
Assay: Growth inhibition of human T47D cells at 10 uM incubated for 48 hrs by sulforhodamine B assay relative to control
Assay type: functional
Details: read-out: GI

| Compound | inhibition of growth at 10 µM [%] |
| --- | --- |
| Clc1ccc(-c2cn3nc(-c4ccccc4)nc3s2)cc1 | 74 |

Test system: A498
Assay: Growth inhibition of human A498 cells at 10 uM incubated for 48 hrs by sulforhodamine B assay relative to control
Assay type: functional
Details: A498, 48 h, read-out: GI

| Compound | inhibition of growth at 10 µM [%] |
| --- | --- |
| Clc1ccc(-c2cn3nc(-c4ccccc4)nc3s2)cc1 | 52 |

Test system: U-251
Assay: Growth inhibition of human U251 cells at 10 uM incubated for 48 hrs by sulforhodamine B assay relative to control
Assay type: functional
Details: U-251, 48 h, read-out: GI

| Compound | inhibition of growth at 10 µM [%] |
| --- | --- |
| Clc1ccc(-c2cn3nc(-c4ccccc4)nc3s2)cc1 | 25 |

Test system: Malme-3M
Assay: Growth inhibition of human MALME-3M cells at 10 uM incubated for 48 hrs by sulforhodamine B assay relative to control
Assay type: functional
Details: read-out: GI

| Compound | inhibition of growth at 10 µM [%] |
| --- | --- |
| Clc1ccc(-c2cn3nc(-c4ccccc4)nc3s2)cc1 | 10 |

Test system: SNB-19
Assay: Growth inhibition of human SNB19 cells at 10 uM incubated for 48 hrs by sulforhodamine B assay relative to control
Assay type: functional
Details: SNB-19, 48 h, read-out: GI

| Compound | inhibition of growth at 10 µM [%] |
| --- | --- |
| Clc1ccc(-c2cn3nc(-c4ccccc4)nc3s2)cc1 | 57 |

Test system: SN12C
Assay: Growth inhibition of human SN12C cells at 10 uM incubated for 48 hrs by sulforhodamine B assay relative to control
Assay type: functional
Details: read-out: GI

| Compound | inhibition of growth at 10 µM [%] |
| --- | --- |
| Clc1ccc(-c2cn3nc(-c4ccccc4)nc3s2)cc1 | 22 |

Test system: K562
Assay: Growth inhibition of human K562 cells at 10 uM incubated for 48 hrs by sulforhodamine B assay relative to control
Assay type: functional
Details: K562, 48 h, read-out: GI

| Compound | inhibition of growth at 10 µM [%] |
| --- | --- |
| Clc1ccc(-c2cn3nc(-c4ccccc4)nc3s2)cc1 | 24 |

Test system: MDA-MB-231
Assay: Growth inhibition of human MDA-MB-231/ATCC cells at 10 uM incubated for 48 hrs by sulforhodamine B assay relative to control
Assay type: functional
Details: MDA-MB-231, 48 h, read-out: GI

| Compound | inhibition of growth at 10 µM [%] |
| --- | --- |
| Clc1ccc(-c2cn3nc(-c4ccccc4)nc3s2)cc1 | 57 |

Test system: MOLT-4
Assay: Growth inhibition of human MOLT4 cells at 10 uM incubated for 48 hrs by sulforhodamine B assay relative to control
Assay type: functional
Details: MOLT-4, 48 h, read-out: GI

| Compound | inhibition of growth at 10 µM [%] |
| --- | --- |
| Clc1ccc(-c2cn3nc(-c4ccccc4)nc3s2)cc1 | 8 |

Test system: CCRF-CEM
Assay: Growth inhibition of human CCRF-CEM cells at 10 uM incubated for 48 hrs by sulforhodamine B assay relative to control
Assay type: functional
Details: read-out: GI

| Compound | inhibition of growth at 10 µM [%] |
| --- | --- |
| Clc1ccc(-c2cn3nc(-c4ccccc4)nc3s2)cc1 | 6 |

Test system: RXF 393
Assay: Growth inhibition of human RXF393 cells at 10 uM incubated for 48 hrs by sulforhodamine B assay relative to control
Assay type: functional
Details: RXF 393, 48 h, read-out: GI

| Compound | inhibition of growth at 10 µM [%] |
| --- | --- |
| Clc1ccc(-c2cn3nc(-c4ccccc4)nc3s2)cc1 | 39 |

Test system: MCF7
Assay: Growth inhibition of human MCF7 cells at 10 uM incubated for 48 hrs by sulforhodamine B assay relative to control
Assay type: functional
Details: MCF7, 48 h, read-out: GI

| Compound | inhibition of growth at 10 µM [%] |
| --- | --- |
| Clc1ccc(-c2cn3nc(-c4ccccc4)nc3s2)cc1 | 35 |

Test system: RPMI-8226
Assay: Growth inhibition of human RPMI8226 cells at 10 uM incubated for 48 hrs by sulforhodamine B assay relative to control
Assay type: functional
Details: RPMI-8226, 48 h, read-out: GI

| Compound | inhibition of growth at 10 µM [%] |
| --- | --- |
| Clc1ccc(-c2cn3nc(-c4ccccc4)nc3s2)cc1 | 10 |

Test system: HL-60(TB)
Assay: Growth inhibition of human HL-60(TB) cells at 10 uM incubated for 48 hrs by sulforhodamine B assay relative to control
Assay type: functional
Details: HL-60, 48 h, read-out: GI

| Compound | inhibition of growth at 10 µM [%] |
| --- | --- |
| Clc1ccc(-c2cn3nc(-c4ccccc4)nc3s2)cc1 | 15 |

Test system: NCI-H522
Assay: Growth inhibition of human NCI-H522 cells at 10 uM incubated for 48 hrs by sulforhodamine B assay relative to control
Assay type: functional
Details: NCI-H522, 48 h, read-out: GI

| Compound | inhibition of growth at 10 µM [%] |
| --- | --- |
| Clc1ccc(-c2cn3nc(-c4ccccc4)nc3s2)cc1 | 29 |

Test system: DU-145
Assay: Growth inhibition of human DU145 cells at 10 uM incubated for 48 hrs by sulforhodamine B assay relative to control
Assay type: functional
Details: DU-145, 48 h, read-out: GI

| Compound | inhibition of growth at 10 µM [%] |
| --- | --- |
| Clc1ccc(-c2cn3nc(-c4ccccc4)nc3s2)cc1 | 14 |

Test system: PANC-1
Assay: Antiproliferative activity against human PANC1 cells after 48 hrs by propidium iodide staining-based fluorometric analysis
Assay type: functional, cell-based
Details: PANC-1, 48 h

| Compound | IC50 [µM] |
| --- | --- |
| Clc1ccc(-c2cn3nc(-c4ccccc4)nc3s2)cc1 | 5.2 |

Test system: NCI-H460
Assay: Antiproliferative activity against human H460 cells after 48 hrs by propidium iodide staining-based fluorometric analysis
Assay type: functional, cell-based
Details: NCI-H460, 48 h

| Compound | IC50 [µM] |
| --- | --- |
| Clc1ccc(-c2cn3nc(-c4ccccc4)nc3s2)cc1 | 5.1 |

Test system: NCI-H226
Assay: Growth inhibition of human NCI-H226 cells at 10 uM incubated for 48 hrs by sulforhodamine B assay relative to control
Assay type: functional
Details: NCI-H226, 48 h, read-out: GI

| Compound | inhibition of growth at 10 µM [%] |
| --- | --- |
| Clc1ccc(-c2cn3nc(-c4ccccc4)nc3s2)cc1 | 32 |

Test system: SF-539
Assay: Growth inhibition of human SF539 cells at 10 uM incubated for 48 hrs by sulforhodamine B assay relative to control
Assay type: functional
Details: SF-539, 48 h, read-out: GI

| Compound | inhibition of growth at 10 µM [%] |
| --- | --- |
| Clc1ccc(-c2cn3nc(-c4ccccc4)nc3s2)cc1 | 21 |

Test system: HT-29
Assay: Growth inhibition of human HT-29 cells at 10 uM incubated for 48 hrs by sulforhodamine B assay relative to control
Assay type: functional
Details: HT-29, 48 h, read-out: GI

| Compound | inhibition of growth at 10 µM [%] |
| --- | --- |
| Clc1ccc(-c2cn3nc(-c4ccccc4)nc3s2)cc1 | 26 |

Test system: KM12
Assay: Growth inhibition of human KM12 cells at 10 uM incubated for 48 hrs by sulforhodamine B assay relative to control
Assay type: functional
Details: KM12, 48 h, read-out: GI

| Compound | inhibition of growth at 10 µM [%] |
| --- | --- |
| Clc1ccc(-c2cn3nc(-c4ccccc4)nc3s2)cc1 | 30 |

Test system: EKVX
Assay: Growth inhibition of human EKVX cells at 10 uM incubated for 48 hrs by sulforhodamine B assay relative to control
Assay type: functional
Details: read-out: GI

| Compound | inhibition of growth at 10 µM [%] |
| --- | --- |
| Clc1ccc(-c2cn3nc(-c4ccccc4)nc3s2)cc1 | 28 |

Test system: NCI-H322M
Assay: Growth inhibition of human NCI-H322M cells at 10 uM incubated for 48 hrs by sulforhodamine B assay relative to control
Assay type: functional
Details: read-out: GI

| Compound | inhibition of growth at 10 µM [%] |
| --- | --- |
| Clc1ccc(-c2cn3nc(-c4ccccc4)nc3s2)cc1 | 20 |

Test system: SW-620
Assay: Growth inhibition of human SW620 cells at 10 uM incubated for 48 hrs by sulforhodamine B assay relative to control
Assay type: functional
Details: SW-620, 48 h, read-out: GI

| Compound | inhibition of growth at 10 µM [%] |
| --- | --- |
| Clc1ccc(-c2cn3nc(-c4ccccc4)nc3s2)cc1 | 13 |

Test system: COLO 205
Assay: Growth inhibition of human COLO205 cells at 10 uM incubated for 48 hrs by sulforhodamine B assay relative to control
Assay type: functional
Details: COLO 205, 48 h, read-out: GI

| Compound | inhibition of growth at 10 µM [%] |
| --- | --- |
| Clc1ccc(-c2cn3nc(-c4ccccc4)nc3s2)cc1 | 18 |

Test system: SF-295
Assay: Growth inhibition of human SF295 cells at 10 uM incubated for 48 hrs by sulforhodamine B assay relative to control
Assay type: functional
Details: SF-295, 48 h, read-out: GI

| Compound | inhibition of growth at 10 µM [%] |
| --- | --- |
| Clc1ccc(-c2cn3nc(-c4ccccc4)nc3s2)cc1 | 21 |

Test system: MDA-MB-435
Assay: Growth inhibition of human MDA-MB-435 cells at 10 uM incubated for 48 hrs by sulforhodamine B assay relative to control
Assay type: functional
Details: MDA-MB-435, 48 h, read-out: GI

| Compound | inhibition of growth at 10 µM [%] |
| --- | --- |
| Clc1ccc(-c2cn3nc(-c4ccccc4)nc3s2)cc1 | 11 |

Test system: IGROV-1
Assay: Growth inhibition of human IGROV1 cells at 10 uM incubated for 48 hrs by sulforhodamine B assay relative to control
Assay type: functional
Details: IGROV-1, 48 h, read-out: GI

| Compound | inhibition of growth at 10 µM [%] |
| --- | --- |
| Clc1ccc(-c2cn3nc(-c4ccccc4)nc3s2)cc1 | 55 |

Test system: ACHN
Assay: Growth inhibition of human ACHN cells at 10 uM incubated for 48 hrs by sulforhodamine B assay relative to control
Assay type: functional
Details: read-out: GI

| Compound | inhibition of growth at 10 µM [%] |
| --- | --- |
| Clc1ccc(-c2cn3nc(-c4ccccc4)nc3s2)cc1 | 49 |

Test system: NCI-H23
Assay: Growth inhibition of human NCI-H23 cells at 10 uM incubated for 48 hrs by sulforhodamine B assay relative to control
Assay type: functional
Details: NCI-H23, 48 h, read-out: GI

| Compound | inhibition of growth at 10 µM [%] |
| --- | --- |
| Clc1ccc(-c2cn3nc(-c4ccccc4)nc3s2)cc1 | 33 |

Target: Epidermal growth factor receptor (Homo sapiens, UniProt P00533)
Sequence (P00533 whole entry, the tested form may be a part): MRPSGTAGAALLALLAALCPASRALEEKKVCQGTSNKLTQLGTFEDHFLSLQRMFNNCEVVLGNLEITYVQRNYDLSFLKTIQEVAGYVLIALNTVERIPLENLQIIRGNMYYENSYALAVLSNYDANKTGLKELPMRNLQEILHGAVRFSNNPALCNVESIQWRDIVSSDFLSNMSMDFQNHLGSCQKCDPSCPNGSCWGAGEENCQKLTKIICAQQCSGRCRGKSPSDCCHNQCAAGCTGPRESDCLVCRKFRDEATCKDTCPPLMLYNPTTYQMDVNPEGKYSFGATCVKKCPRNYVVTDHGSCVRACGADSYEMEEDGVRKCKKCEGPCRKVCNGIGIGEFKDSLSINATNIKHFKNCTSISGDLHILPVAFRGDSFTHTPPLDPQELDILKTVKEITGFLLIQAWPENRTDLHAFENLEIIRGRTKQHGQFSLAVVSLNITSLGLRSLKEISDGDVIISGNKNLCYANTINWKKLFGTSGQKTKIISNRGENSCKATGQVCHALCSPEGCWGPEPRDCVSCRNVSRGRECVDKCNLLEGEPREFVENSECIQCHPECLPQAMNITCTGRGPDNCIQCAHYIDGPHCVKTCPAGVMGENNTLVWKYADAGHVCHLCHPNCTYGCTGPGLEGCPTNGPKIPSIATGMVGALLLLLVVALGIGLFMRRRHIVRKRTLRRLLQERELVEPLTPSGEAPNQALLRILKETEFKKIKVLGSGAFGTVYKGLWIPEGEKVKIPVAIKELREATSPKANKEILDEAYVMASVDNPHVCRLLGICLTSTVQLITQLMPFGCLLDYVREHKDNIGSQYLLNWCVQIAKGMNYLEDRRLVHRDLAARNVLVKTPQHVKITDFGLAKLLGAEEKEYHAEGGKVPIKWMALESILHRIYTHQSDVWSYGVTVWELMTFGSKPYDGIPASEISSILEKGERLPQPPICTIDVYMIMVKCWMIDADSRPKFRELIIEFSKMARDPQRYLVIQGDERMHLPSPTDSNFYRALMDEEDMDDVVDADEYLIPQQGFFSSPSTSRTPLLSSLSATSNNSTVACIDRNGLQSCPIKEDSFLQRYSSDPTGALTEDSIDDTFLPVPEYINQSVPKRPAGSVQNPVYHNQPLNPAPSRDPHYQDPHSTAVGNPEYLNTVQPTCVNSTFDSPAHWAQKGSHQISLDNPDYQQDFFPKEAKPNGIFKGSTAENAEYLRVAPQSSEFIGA
Assay: Inhibition of His6-tagged recombinant EGFR cytoplasmic domain (645 to 1186 residues) (unknown origin) expressed in baculovirus infected Sf9 insect cells preincubated for 10 mins followed by ATP-MgCl2 addition and measured after 1 hr by DELFIA/time-resolved fluorometric analysis
Details: not given

| Compound | IC50 [µM] |
| --- | --- |
| Clc1ccc(-c2cn3nc(-c4ccccc4)nc3s2)cc1 | 7.2 |

Test system: HCT-116
Assay: Growth inhibition of human HCT116 cells at 10 uM incubated for 48 hrs by sulforhodamine B assay relative to control
Assay type: functional
Details: HCT-116, 48 h, read-out: GI

| Compound | inhibition of growth at 10 µM [%] |
| --- | --- |
| Clc1ccc(-c2cn3nc(-c4ccccc4)nc3s2)cc1 | 41 |
